This passage reports IC50 results from patent publication US20250154154A1 (Relay Binney Street, 2nd Floor, priority 2020, published 2025).

One test deals with RBE cells. Kind of test: Cell Viability Protocol (CellTiterGlo), RBE cells. Type of test: cell-based. As to conditions: RBE or SNU-1079 cells, 72 or 120 hour, cell line and time not given. As for the experimental part:
RBE or SNU-1079 cells were cultured in T-75 or T-175 flasks at 37° C., 5% CO2, 95% relative humidity in RPMI 1640 medium with 10% FBS and 1% Penicillin/Streptomycin (media) and detached with 0.25% trypsin/EDTA at 80-90% confluency. Cells were then seeded in 40 μL media per well in 384-well flat-bottom polystyrene microplates (Corning Cat. No. 3570) at a seeding density of 1200 cells/well and incubated for 24 hours at 37° C. with 5% CO2, 95% relative humidity. On the next day, test compounds were prepared in 10 mM DMSO stock solution and diluted to the indicated concentrations in a 384-well compound source plate. DMSO was employed as a vehicle control. Compounds (40 nL) were transferred to 384-well cell culture plate(s) using the liquid handler Echo550. Plates were incubated at 37° C. with 5% CO2 for 72 hour or 120 hour (as indicated). CellTiterGlo reagent was warmed to 37° C. and added into each well (40 μL per well). Plates were incubated at room temperature for 30 min followed by reading on the EnSpire or EnVision plate reader. Relative viability (% remaining activity) was calculated relative to DMSO control and IC50 values were obtained from dose-response data fitted to a 4-parameter curve.
(Cellular ATP, detected with luciferase, serves as a proxy for viable cell number.)

Another test deals with SRC (Homo sapiens, UniProt P12931). The test is described as follows: SRC Biochemical Assay Protocol (microfluidic mobility shift assay, FLPeptide4 substrate). Put shortly:
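Recombinant SRC (0.26 nM) preincubated 30 min at RT with compound (0.0017–100 μM) and 1.5 μM FLPeptide4, then 50 μM ATP added; 90 min reaction in HEPES pH 7.4, 10 mM MgCl2, 1% DMSO, EDTA-quenched. Phosphopeptide quantified by microfluidic mobility shift; IC50 from 4-parameter logistic fit.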

Test [1] relates to phospho-S6RP (Ser 235/236) in RBE cells. The test is described as follows: Cellular Proliferation Protocol (cellular phospho-S6RP HTRF), RBE cells. It counts as cell-based. The settings on record: 6 hours treatment, RBE or SNU-1079 cells, cell line not given. As for the experimental part:
Cellular Proliferation Protocol
Cellular phospho-S6RP (Ser 235/236) was measured using a Fluorescence Resonance Energy Transfer (FRET) sandwich assay format (Cisbio HTRF Cat. No. 64RP6PEG). This format uses 2 different, labelled antibodies (Eu^3+-Cryptate donor and d2 acceptor) that positively modulate a specific signal in proportion to phospho-S6RP (Ser 235/236) directly in cells. RBE or SNU-1079 cells were cultivated in T-75 flasks at 37° C., 5% CO2, 95% relative humidity in RPMI 1640 medium with 10% FBS and 1% Penicillin/Streptomycin and detached with trypsin/EDTA at 80-90% confluency. Cells were then seeded in 40 μL volume per well in 384-well flat-bottom polystyrene microplates (Corning Cat. No. 3570) at a seeding density of 2000 cells/well for RBE and 3000 cells/well for SNU-1079 followed by 24 hour incubation at 37° C., 5% CO2, 95% relative humidity. On the next day, compounds were diluted to […] the indicated concentrations and 40 nL of these treatment compounds, along with DMSO vehicle control, were added to the cells (final concentration of compounds is then the indicated concentrations). Treatment was carried out for 6 hours at 37° C., 5% CO2, 95% relative humidity after which the plates were cooled to room temperature before aspirating the medium. Cells were then lysed on a shaker for 45 minutes at room temperature with 20 μL of 1× supplemented lysis buffer per well. After lysis, 5 μL of pre-mixed antibodies was added per well. Plates were covered with black sealing film and incubated overnight at room temperature on a shaker before being read on a PerkinElmer EnVision microplate reader. Percent activation was calculated relative to DMSO control and IC50 values were obtained from dose-response data fitted to a 4-parameter curve.

Counter-ions that a name gives are not always drawn.

SRC, sequence (P12931 whole entry, species assumed): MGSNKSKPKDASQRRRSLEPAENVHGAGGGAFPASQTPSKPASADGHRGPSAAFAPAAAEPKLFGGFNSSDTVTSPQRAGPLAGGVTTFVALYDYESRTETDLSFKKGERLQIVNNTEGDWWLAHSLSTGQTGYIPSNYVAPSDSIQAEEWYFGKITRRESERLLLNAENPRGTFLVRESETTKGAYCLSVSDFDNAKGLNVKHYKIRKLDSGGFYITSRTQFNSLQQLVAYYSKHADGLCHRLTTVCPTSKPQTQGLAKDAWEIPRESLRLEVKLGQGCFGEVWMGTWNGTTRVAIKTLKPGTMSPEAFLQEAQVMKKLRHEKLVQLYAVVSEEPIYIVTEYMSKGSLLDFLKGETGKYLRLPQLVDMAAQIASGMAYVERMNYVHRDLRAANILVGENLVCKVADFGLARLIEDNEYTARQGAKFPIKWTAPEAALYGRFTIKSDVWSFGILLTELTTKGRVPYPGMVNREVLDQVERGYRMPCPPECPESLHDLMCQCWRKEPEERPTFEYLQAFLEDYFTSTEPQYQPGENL

As for `C=CC(=O)N1C[C@@H]2[C@@H](C#Cc3c(-c4ccc(Oc5ccccc5)cc4)c4c(N)ncnc4n3C3CCOC3)[C@@H]2C1` (stereo partly drawn) [II-209, 1-((1R,5S,6s)-6-((4-amino-5-(4-phenoxyphenyl)-7-(tetrahydrofuran-3-yl)-7H-pyrrolo[2,3-d]pyrimidin-6-yl)ethynyl)-3-aza-bicyclo[3.1.0]hexan-3-yl)prop-2-en-1-one], the IC50 (in the test on RBE cells; at SRC; in test [1] (6 h)) was at most 10 nM throughout.
In the case of `C=CC(=O)N1CCC(C#Cc2c(-c3ccc(Nc4ccccc4)cc3)c3c(N)ncnc3n2C(C)C)CC1` [Example I-7], the IC50 (as a rule, the point on the concentration scale where inhibition reaches its midpoint) was 10 to 1000 nM in the test on RBE cells, 10 to 1000 nM at SRC and at most 10 nM in test [1] (6 h).
As for `C=CC(=O)N1CCN(C2CC(C#Cc3c(-c4ccc(Oc5ccccc5)cc4)c4c(N)ncnc4n3C)C2)CC1` (stereo not drawn) [II-167, 1-(4-(3-((4-amino-7-methyl-5-(4-phenoxyphenyl)-7H-pyrrolo[2,3-d]pyrimidin-6-yl)ethynyl)cyclobutyl)piperazin-1-yl)prop-2-en-1-one], the concentration for half-maximal inhibition (IC50) with RBE cells was at most 10 nM; on SRC, 10 to 1000 nM; in test [1] (6 h), 10 to 1000 nM.
As to `C=CC(=O)N1CCC(N2CC(C#Cc3c(-c4ccc(Oc5ccccc5)cc4)c4c(N)ncnc4n3C(C)C)C2)CC1` [Example I-44], the IC50 (in the test on RBE cells; on SRC; in test [1] (6 h)) was at most 10 nM throughout.
Regarding `CN(C)C/C=C/C(=O)N1CC2(CC(C#Cc3c(-c4ccc(Oc5ccccc5)cc4)c4c(N)ncnc4n3C3CC(=O)N(C)C3)C2)C1` (stereo not drawn) [II-193, (E)-4-(4-amino-6-((2-(4-(dimethylamino)but-2-enoyl)-2-azaspiro[3.3]heptan-6-yl)ethynyl)-5-(4-phenoxyphenyl)-7H-pyrrolo[2,3-d]pyrimidin-7-yl)-1-methylpyrrolidin-2-one], the IC50 in the test on RBE cells fell in the range of 1000 to 10000 nM; on SRC, 10 to 1000 nM; in test [1] (6 h) it was 1000 to 10000 nM.
In the case of `C=CC(=O)N1CCC(N2CC(C#Cc3c(-c4cccc(OC)n4)c4c(N)ncnc4n3C)C2)CC1` [II-92], the IC50 (in the test with RBE cells; on SRC; in test [1]) was 10 to 1000 nM throughout.
For the molecule `CN(C)C/C=C/C(=O)N1CC(C#Cc2c(-c3ccc(Oc4ccccc4)cc3)c3c(N)ncnc3n2C2CC(=O)N(C)C2)C1` (stereo not drawn) [II-192, (E)-4-(4-amino-6-((1-(4-(dimethylamino)but-2-enoyl)azetidin-3-yl)ethynyl)-5-(4-phenoxyphenyl)-7H-pyrrolo[2,3-d]pyrimidin-7-yl)-1-methylpyrrolidin-2-one], the IC50 in the test with RBE cells was 1000 to 10000 nM; on SRC it was 10 to 1000 nM; in test [1] (6 h), 1000 to 10000 nM.
As to `CC(C)n1c(C#CC2CCN(C3CN(C(=O)/C=C/CN(C)C)C3)CC2)c(-c2ccc(Oc3ccccc3)cc2)c2c(N)ncnc21` [Example I-54], the IC50 in the test with RBE cells is 10 to 1000 nM; on SRC it was at most 10 nM; in test [1] (6 h) it was at most 10 nM.
Consider `C=CC(=O)N1CCC(C#Cc2c(-c3ccc(Oc4ccccc4)cc3)c3c(N)ncnc3n2C(C)C(N)=O)CC1` (stereo not drawn) [Example I-33], for which the IC50 (with RBE cells; at SRC; in test [1] (6 h)) was 10 to 1000 nM in each case.
For the molecule `C=CC(=O)N1CCC(O)(C#Cc2c(-c3ccc(Oc4cccc(C)n4)c(OC)c3)c3c(N)ncnc3n2C)CC1` [II-304, formate], the IC50 (in the test on RBE cells; at SRC; in test [1] (6 h)) was 10 to 1000 nM throughout.
As for `C=CC(=O)N1CC[C@H](N2CC(C#Cc3c(-c4ccc(Cl)c(OC)c4)c4c(N)ncnc4n3C)C2)[C@H](O)C1`, the IC50 is at most 10 nM on SRC and 10 to 1000 nM in test [1].
`C=CC(=O)N1CCC(C#Cc2c(-c3ccc(Oc4ccccc4)cc3)c3c(N)ncnc3n2C(C)c2ncon2)CC1` (stereo not drawn) [Example I-59]: the IC50 with RBE cells and on SRC was 10 to 1000 nM in each case.
With `C=CC(=O)N1CCC(C#Cc2c(-c3ccc(Oc4ccccc4)cc3)c3c(N)ncnc3n2C2CCOCC2)CC1` [Example I-41, 1-(4-((4-amino-5-(4-phenoxyphenyl)-7-(tetrahydro-2H-pyran-4-yl)-7H-pyrrolo[2,3-d]pyrimidin-6-yl)ethynyl)piperidin-1-yl)prop-2-en-1-one], the IC50 in the test on RBE cells and at SRC was 10 to 1000 nM each time.
Take `C=CC(=O)N1CCC(C#Cc2cn3ncnc(N)c3c2-c2ccc(Oc3ccccc3)cc2)CC1` [Example I-64]: the IC50 in the test on RBE cells was 1000 to 10000 nM; at SRC it was 10 to 1000 nM.
In the case of `COCCN(C)C/C=C/C(=O)N1C[C@@H]2[C@@H](C#Cc3c(-c4ccc(Oc5cccc(C)n5)cc4OC)c4c(N)ncnc4n3C)[C@@H]2C1` [II-235, (E)-1-((1R,5S,6s)-6-((4-amino-5-(2-methoxy-4-((6-methylpyridin-2-yl)oxy)phenyl)-7-methyl-7H-pyrrolo[2,3-d]pyrimidin-6-yl)ethynyl)-3-azabicyclo[3.1.0]hexan-3-yl)-4-((2-methoxyethyl) (methyl)amino)but-2-en-1-one], the IC50 was 1000 to 10000 nM in the test with RBE cells and 10 to 1000 nM at SRC.
Take `C=CC(=O)NCC#Cc1c(-c2ccc(Oc3ccccc3)cc2)c2c(N)ncnc2n1C` [II-162, N-(3-(4-amino-7-methyl-5-(4-phenoxyphenyl)-7H-pyrrolo[2,3-d]pyrimidin-6-yl)prop-2-yn-1-yl)acrylamide]: the IC50 in the test on RBE cells and on SRC was 10 to 1000 nM throughout.
Turning to `CC(C)N1CCC(C#Cc2c(-c3ccc(Oc4ccccc4)cc3)c3c(N)ncnc3n2C(C)C)CC1` [II-142, 7-isopropyl-6-((1-isopropylpiperidin-4-yl)ethynyl)-5-(4-phenoxyphenyl)-7H-pyrrolo[2,3-d]pyrimidin-4-amine], the IC50 with RBE cells is 10 to 1000 nM; at SRC, at most 10 nM.
Consider `COc1cc(-c2c(C#C[C@@H]3[C@H]4CN(C(=O)/C=C/CN5CCC(F)C5)C[C@@H]34)n(C)c3ncnc(N)c23)ccc1Oc1ccccn1` (stereo partly drawn) [II-47], for which the IC50 in the test on RBE cells and at SRC was 10 to 1000 nM in each case.
`C=CC(=O)N1CCC(C#Cc2c(-c3ccc(Oc4ccccc4)cc3)c3c(N)ncnc3n2C(C)C)CC1` [Example I-8, 1-(4-((4-amino-7-isopropyl-5-(4-phenoxyphenyl)-7H-pyrrolo[2,3-d]pyrimidin-6-yl)ethynyl)piperidin-1-yl)prop-2-en-1-one]: the IC50 in the test on RBE cells and on SRC was 10 to 1000 nM in each case.
Take `CC(C)n1c(C#CC2CCN(S(C)(=O)=O)CC2)c(-c2ccc(Oc3ccccc3)cc2)c2c(N)ncnc21` [II-140, 7-isopropyl-6-((1-(methylsulfonyl)piperidin-4-yl)ethynyl)-5-(4-phenoxyphenyl)-7H-pyrrolo[2,3-d]pyrimidin-4-amine]: the IC50 with RBE cells and on SRC was 10 to 1000 nM each time.
`CC(C)n1c(C#CC2CCNCC2)c(-c2ccc(Oc3ccccc3)cc2)c2c(N)ncnc21` [II-137, 7-isopropyl-5-(4-phenoxyphenyl)-6-(piperidin-4-ylethynyl)-7H-pyrrolo[2,3-d]pyrimidin-4-amine]: the IC50 with RBE cells is 1000 to 10000 nM; on SRC it was at most 10 nM.
On to `C=CC(=O)NC1CC(C#Cc2c(-c3ccc(Oc4ccccc4)cc3)c3c(N)ncnc3n2C2CCOC2)C1` (stereo not drawn) [Example I-71], for which the IC50 was at most 10 nM in the test on RBE cells and 10 to 1000 nM on SRC.
For `Cc1cccc(Oc2ccc(-c3c(C#C[C@@H]4[C@H]5CN(C(=O)/C=C/CN(C)C)C[C@@H]45)n(C)c4ncnc(N)c34)cc2)n1` [II-46], the IC50 in the test with RBE cells and on SRC was 10 to 1000 nM each time.
Consider `CN(C)C/C=C/C(=O)N1C[C@@H]2[C@@H](C#Cc3c(-c4ccc(Oc5cccc(F)c5)cc4)c4c(N)ncnc4n3C)[C@@H]2C1` [II-43], for which the figures for the IC50 with RBE cells and at SRC were at most 10 nM and 10 to 1000 nM, respectively.
As for `C=CC(=O)N1CCC(C#Cc2c(-c3ccc(Oc4ccccc4)cc3)c3c(N)ncnc3n2C(C)c2noc(COC)n2)CC1` (stereo not drawn) [Example I-58], the half-inhibitory concentration (IC50) with RBE cells and on SRC was 10 to 1000 nM throughout.
